The record followed here is patent US8952036B2, “Benzoic acid derivative MDM2 inhibitor for the treatment of cancer” (Amgen Inc., priority 2013, dated 2015).

For data set [1], the system named is Cryopreserved human hepatocytes. Briefly: Human Hepatocyte Intrinsic Clearance Assay. The note with it: for human hepatocyte clearance (comparison): comparison between Examples, in words.
Description: (§4) Cryopreserved human hepatocytes pooled from 20 donors (Celsis-In Vitro Technologies, Baltimore, Md.) were used to determine the intrinsic clearance of the Example compounds. […] At 0, 5, 15, 30, 60 and 90 minutes, aliquots of incubation mixture were removed from the incubator, and quenched with acetonitrile containing 0.1% (v/v) formic acid and internal standard (7-hydroxy-4-trifluoromethylcoumarin). Samples were then centrifuged at 5700 rpm (6100 g) at 4° C. for 10 minutes. Supernatants were transferred to a sample plate, mixed with equal volume of water containing 0.1% formic acid, and analyzed using LC-MS/MS.
(§5) The LC-MS/MS system for sample analysis consisted of a reverse phase UHPLC (Shimadzu Model Nexera LC-30AD, Shimadzu Scientific Instruments, Inc, Columbia, Md.) interfaced with an API4000 triple quadruple mass spectrometer operating in negative ion mode (Applied Biosystems, Inc., Foster City, Calif.). Chromatographic separation was achieved using a Phenomenex Kinetex Luna C18 column (Phenomenex, Torrance, Calif.) (2×50 mm, 2.6 μm) maintained at 55° C. with a mobile phase flow rate of 1.2 mL/min. The mobile phase consisted of 0.1% formic acid in water (A) and 0.1% formic acid in acetonitrile (B).
A short description of data set [2]: Human Hepatocyte Intrinsic Clearance Assay. The note with it: human, cryopreserved human hepatocytes pooled from 20 donors.
Description: as §4, §5
Another data set deals with CYP3A4. The note with it: human, 48 h; for CYP3A4 mRNA induction: hepatocytes. From the text: (§1) Human Hepatocyte CYP1A2, CYP2B6, and CYP3A4 Induction Assay
(§2) Materials. […] Insulin-transferrin-selenium supplement (ITS), penicillin-streptomycin-L-glutamine supplement (PSG), fetal bovine serum (FBS), phosphate-buffered saline (PBS), cryopreserved hepatocyte recovery medium (CHRM), and three individual-donor lots of cryopreserved adult human hepatocytes were obtained from Life Technologies (Grand Island, N.Y.). Collagen I-precoated 24-well plates and hydroxybupropion were acquired from Becton Dickinson Labware (Bedford, Mass.). Branched DNA (b-DNA) probe sets for human CYP1A2, CYP2B6, CYP3A4, and 18S rRNA and the Panomics Discovery XL Kit were purchased from Affymetrix Inc. (Santa Clara, Calif.).
In vitro Methods. […] Individual lots were plated in collagen-coated 24-well plates with approximately 0.38×10^6 cells/well. […] After the attachment period, the plating medium and unattached cells were removed by aspiration and 37° C. HMM was added to each well (0.5 mL/well), and the cells were incubated overnight. On Day 2, the medium was aspirated and fresh 37° C. HMM was reapplied to the cells for an overnight acclimation period. […] The Example compounds to be tested were prepared in DMSO stock solutions resulting in final incubation concentrations of 0.1% DMSO. Example compound treatment was maintained for a total of 48 hours. On Day 5, the medium was aspirated, and the hepatocytes were gently washed one time with KHB (37° C., pH 7.4). The KHB was removed, and a second application of KHB was administered (0.5 mL/well). The hepatocytes were placed back into the incubator and allowed to acclimate to the KHB for 10 minutes. P450 enzyme activities were subsequently determined by the addition of marker substrates phenacetin (100 μM, CYP1A2 probe substrate, 30-minute incubation) bupropion hydrochloride (100 μM, CYP2B6 probe substrate, 20-minute incubation), and testosterone (200 μM, CYP3A4 probe substrate, 14-minute incubation) which were dissolved in KHB (37° C., pH 7.4, 0.5 mL/well). After the substrate incubation periods, the buffers were collected and stored at −80° C. until analyzed. Hepatocytes used for mRNA analysis were washed once in PBS (0.5 mL/well, 25° C., containing calcium and magnesium) and protocol-prepared b-DNA lysis buffer was added to each well (0.5 mL/well). The hepatocytes were lysed by gently pipetting the lysis buffer up and down five times, and the plates were stored at −80° C. until analysis.
P450 mRNA Analysis. CYP1A2, CYP2B6, and CYP3A4 mRNA content was determined with branched DNA (b-DNA) signal amplification technology using the Panomics Discover XL Kit with assays performed according to the manufacturer's instructions. b-DNA probe sets containing capture extender, label extender, and blocking probes for human CYP1A2, CYP2B6, CYP3A4, and 18S rRNA were purchased from Affymetrix Inc. Plate washing steps were performed on an Elx405 automated microplate washer (BioTek Instruments Inc., Winooski, Vt.), and luminescence was analyzed on a Luminoskan Ascent microplate luminometer (Thermo Lab Systems, Helsinki, Finland). P450 mRNA levels were normalized to the mRNA levels of the housekeeping gene 18S rRNA.
(§3) Data Reporting. For each P450 isoform for mRNA analysis, fold increases over vehicle control (with vehicle control set to 1.0) were calculated for positive controls and each treatment group for the Example compounds.

The subject of the next data set is CYP1A2, CYP2B6 or CYP3A4. Briefly: Human Hepatocyte CYP1A2, CYP2B6, and CYP3A4 Induction Assay (summary). The class given is in vitro ADME. The note with it: human hepatocytes, mRNA.
Description: as §1, §2
In vitro Methods. […] Individual lots were plated in collagen-coated 24-well plates with approximately 0.38×10^6 cells/well. […] After the attachment period, the plating medium and unattached cells were removed by aspiration and 37° C. HMM was added to each well (0.5 mL/well), and the cells were incubated overnight. On Day 2, the medium was aspirated and fresh 37° C. HMM was reapplied to the cells for an overnight acclimation period. […] The Example compounds to be tested were prepared in DMSO stock solutions resulting in final incubation concentrations of 0.1% DMSO. Example compound treatment was maintained for a total of 48 hours. […] P450 enzyme activities were subsequently determined by the addition of marker substrates phenacetin (100 μM, CYP1A2 probe substrate, 30-minute incubation) bupropion hydrochloride (100 μM, CYP2B6 probe substrate, 20-minute incubation), and testosterone (200 μM, CYP3A4 probe substrate, 14-minute incubation) which were dissolved in KHB (37° C., pH 7.4, 0.5 mL/well). After the substrate incubation periods, the buffers were collected and stored at −80° C. until analyzed. […]
as §3

“Also recorded” adds a separate entry of the source. Read-outs that look alike come from different tables or passages of the source.

As a reminder, the hepatocyte CLint is the capacity of the preparation to metabolise the compound, expressed as a volume cleared per time. Lower therefore signals greater metabolic stability. Regarding `CC(C)(C)S(=O)(=O)C[C@H](C1CC1)N1C(=O)[C@@](C)(CC(N)=O)C[C@H](c2cccc(Cl)c2)[C@H]1c1ccc(Cl)cc1` [Example 2, 2-((3R,5R,6S)-1-((S)-2-(tert-Butylsulfonyl)-1-cyclopropylethyl)-5-(3-chlorophenyl)-6-(4-chlorophenyl)-3-methyl-2-oxopiperidin-3-yl)acetamide], the “human hepatocyte clearance (comparison)” value in data set [1] was “hepatocyte clearance increases”. In addition, the hepatocyte CLint at 500 nM in data set [2] is 26 µL/min/1e6 cells.
`CC(C)(C)S(=O)(=O)C[C@H](C1CC1)N1C(=O)[C@@](C)(CC(=O)Nc2ccccc2)C[C@H](c2cccc(Cl)c2)[C@H]1c1ccc(Cl)cc1` [Example 3, 2-((3R,5R,6S)-1-((S)-2-(tert-Butylsulfonyl)-1-cyclopropylethyl)-5-(3-chlorophenyl)-6-(4-chlorophenyl)-3-methyl-2-oxopiperidin-3-yl)-N-phenylacetamide]: the entries for the “mRNA % of Positive Control (Donor One)” value in the data set on CYP3A4 (0.1 μM), in the data set on CYP3A4 (1 μM) and with CYP3A4 (10 μM) were 1.71%, 17.15% and 37.77%, respectively. Further, the entries for the “mRNA % of Positive Control (Donor Three)” value in the data set on CYP3A4 (0.1 μM), with CYP3A4 (1 μM) and in the data set with CYP3A4 (10 μM) were 0.15%, 3.21% and 37.60%, respectively. The entries for the “mRNA % of Positive Control (Donor Two)” value in the data set with CYP3A4 (0.1 μM), with CYP3A4 (1 μM) and in the data set on CYP3A4 (10 μM) were 4.95%, 10.38% and 45.78%, respectively. Further, the “CYP3A4 mRNA induction” value with CYP3A4 is “exhibit CYP3A4 mRNA induction”. In the data set on CYP1A2, CYP2B6 or CYP3A4, the “Induction Assay Summary” value is recorded as “CYP3A4”. Moreover, in data set [1], the “human hepatocyte clearance (comparison)” value was “further increases”. This compound yielded a hepatocyte CLint at 500 nM in data set [2] of 28 µL/min/1e6 cells.
`CC(C)(C)S(=O)(=O)C[C@H](C1CC1)N1C(=O)[C@@](C)(CC(=O)O)C[C@H](c2cccc(Cl)c2)[C@H]1c1ccc(Cl)c(F)c1` [Example 4, 2-((3R,5R,6S)-1-((S)-2-(tert-Butylsulfonyl)-1-cyclopropylethyl)-6-(4-chloro-3-fluorophenyl)-5-(3-chlorophenyl)-3-methyl-2-oxopiperidin-3-yl)acetic acid]: the “mRNA % of Positive Control (Donor One)” value in the data set with CYP3A4 (0.1 μM) is 1.62%; in the data set on CYP3A4 (1 μM), 2.96%; in the data set with CYP3A4 (10 μM) it was 10.14%. For the same compound, the “mRNA % of Positive Control (Donor Three)” value with CYP3A4 (0.1 μM) came to 0.42%; with CYP3A4 (1 μM), 0.47%; in the data set with CYP3A4 (10 μM), 3.07%. The “mRNA % of Positive Control (Donor Two)” value worked out at 2.30% in the data set with CYP3A4 (0.1 μM), 7.29% with CYP3A4 (1 μM) and 12.51% in the data set with CYP3A4 (10 μM). Further, in the data set with CYP1A2, CYP2B6 or CYP3A4, the “Induction Assay Summary” value is “None”. In addition, the “human hepatocyte clearance (comparison)” value in data set [1] is given as “higher human hepatocyte clearance than the compound of Example 1”. The hepatocyte CLint at 500 nM in data set [2] was found to be 26 µL/min/1e6 cells.
Regarding `COc1cc(NC(=O)C[C@@]2(C)C[C@H](c3cccc(Cl)c3)[C@@H](c3ccc(Cl)c(F)c3)N([C@H](CS(=O)(=O)C(C)(C)C)C3CC3)C2=O)ccc1C(=O)O` [Example 5, 4-(2-((3R,5R,6S)-1-((S)-2-(tert-Butylsulfonyl)-1-cyclopropylethyl)-6-(4-chloro-3-fluorophenyl)-5-(3-chlorophenyl)-3-methyl-2-oxopiperidin-3-yl)acetamido)-2-methoxybenzoic acid], the “mRNA % of Positive Control (one donor)” value with CYP3A4 (0.1 μM) is −1.49%; with CYP3A4 (1 μM) it was 0.34%; with CYP3A4 (10 μM), 0.98%. Further, in the data set on CYP3A4, the “CYP3A4 mRNA induction” value was “does not show CYP3A4 mRNA induction”. The “Induction Assay Summary” value in the data set with CYP1A2, CYP2B6 or CYP3A4 was “None”. Also, in data set [1] (500 nM, pooled human hepatocytes 1 million cells/mL), the “Human hepatocyte CLint assay (μL/min/10^6 cells)” value was 1.45 μL/min/10^6 cells. Besides, the “human hepatocyte clearance (comparison)” value in data set [1] was “lower human hepatocyte clearance than either of the compounds of Examples 1 or 4; also recorded: lower human hepatocyte clearance than any of Examples 1 to 4”. The compound further showed a hepatocyte CLint at 500 nM in data set [2] of 1.45 µL/min/1e6 cells.
